Earlier results in US20130295052A1, “NOVEL CONJUGATES FOR TARGETED DRUG DELIVERY” (priority 2010, published 2013).
Where two headings read alike, the source gives them in different places.

grade 4 neutropenia (<500 cells/mm3), patients (60 mg/m2): 75% | grade 4 neutropenia (<500 cells/mm3), patients (100 mg/m2): 85% | neutropenia (<2,000 neutrophils/mm3) occurrence (60-100 mg/m2): virtually in all patients
Compound: CC(=O)O[C@@]12CO[C@@H]1C[C@H](O)[C@@]1(C)C(=O)[C@H](O)C3=C(C)[C@@H](OC(=O)[C@H](O)[C@@H](NC(=O)OC(C)(C)C)c4ccccc4)C[C@@](O)([C@@H](OC(=O)c4ccccc4)[C@H]21)C3(C)C [Taxotere, Docetaxel]
